From patent US20120171396A1, “Drug suspension agent and method of manufacture thereof” (Beijing Zhongwei Shennong Chronic Desease Medicine Academe …, priority 2009, published 2012)

Assays:
[1] = system: male Prostatic hyperplasia patients; assay: Clinical curative effects of PHD on male Prostatic hyperplasia; assay type: in vivo, human
Description: Case selection: 72 patients, male, wherein 53 cases with the age of 60-69 years old, 16 cases with the age of 70-79 years old, 3 cases with the age of 80-89 years old. The longest course of disease is 11 years, the shortest is 3 months. There are 6 cases with the course of disease smaller than one year, 48 cases with the course of disease in the range of 1-4 years, 14 cases with the course of disease in the range of 5-10 years, 4 cases with the course of disease bigger than 10 years. There are 12 cases with prostate enlargement I-degree, 44 cases with prostate enlargement II-degree, and 16 cases with prostate enlargement III-degree. There are 4 cases integrated with bladder stones, and 6 cases with urinary infection.
Observation method: based on the ages of patients, course of disease and state of illness, patients are divided into two groups.
(1) The control group comprises 36 patients, administered with finasteride tablet, one every time, one time every day, oral administration.
(2) The treatment group comprises 36 patients, administered with PHD, four hours every time, one time every day, hanging.
Observe patients' symptoms before and after administration which mainly includes frequent urination at night, difficult urinating, urination becoming thinner, drop after urination, micturition pain, and urgent urination. No, light, medium, heavy symptoms are scored 0, 1, 2, 3 respectively. Observe integral changes before and after treatment. Rectal touch and B ultra examination are made to observe the recovery condition of prostate enlargement.
Based on the ratio of the integral difference of local symptom before administration to that after administration and the condition of prostate recovery, curative effects are evaluated. If healing, the integral ratio is 1, and prostate enlargement is back to normal. […] If effective, the integral ratio is in the range of ⅔ to ⅓, and prostate enlargement is improved. If invalid, the integral ration is smaller than ⅓, and prostate enlargement has no change.

[2] = system: gastric and duodenal ulcer patients; assay: Clinical observation of NHD on gastric and duodenal ulcer patients; assay type: in vivo, human
Procedure: 1. Case selection: Selected 80 inpatients are in accordance with gastric and duodenal ulcer diagnostic criteria. The inpatients are randomly divided into two groups. […] 2. Method of treatment: […] The course of treatment is one month. After two months, review by gastroscopy. Omeprazole is used in the control group by oral administration once every day, one piece every time (20 mg), the course of treatment is the same. 3. Observation items: ulcer surface (regarding results tested by gastroscope as standard), partial clinical symptoms (such as abdominal pain and acid reflux) 4. Curative effect evaluation standard: referring to Chinese national diagnostic curative effect standard.

patients with diabetes = assay: Clinical curative effect of DHD on diabetes (diabetes kidney disease patients); assay type: in vivo, human; set-up: Blood glucose at 2 hours after the meal / Fasting blood glucose (FBG): unit not given here
Description: 1. The standard of selecting patients: All patients with diabetes are in accordance with WHO diabetes diagnostic criteria. Select 18 cases of urine protein, renal function and two groups with the matching developing speeds of renal function injury within one year from diabetes kidney disease patients (DN). […] Once patients are selected, other drugs related to sugar, fat metabolism are stopped administering, diet control and proper exercise therapy are continued. Test fasting blood glucose and blood glucose at 2 hours after the meal every week. After stabilizing the blood glucose, experimental treatment is performed, the treatment group uses DHD, once every day, four hours every time. […] 3. Results: By statistic treatment, clinical curative effects between the two groups are tested by Ridit, and observation indexes between the two groups and within every group before and after treatment are tested by t-test. Marked: […] Effective: […]

Kunming mice = assay: Pharmacodynamic test of the cough-relieving effect (ammonia-induced cough); assay type: in vivo; details: 1 hour after administering, control: codeine phosphate 4 mg/kg by gavage, test: hung
Procedure: 60 kunming mice, in half respectively male and female and weighing from 18 g to 20 g, are randomly divided into 5 groups based on the weight, each group comprises 12 rice. […] suspension agent is hung in the test group. Codeine phosphate with a dosage of 4 mg/kg is administered to the control group by gavage.
For the above two groups, at 1 hour after administering, absorb 0.2 ml ammonia (with a concentration of 25%-28%) by 1 ml injector and inject the ammonia into the tampon with the same weight thereof, and then quickly put the injected tampon together with the white rice into an inverse 500 ml beaker, and then record the number of animal coughing within 3 minutes. The obvious decrease of cough frequency is regarded as the index of the antitussive effect.

hyperuricemia mice = assay: Pharmacodynamic test of hyperuricemia; assay type: in vivo
Procedure: Kunming male mice, weighing 24±2 g, are randomly divided into several groups, use i, g, once every day for 4 days, wherein the dosages administered to the saline group and the hyperuricemia model blank group are […] every day. IP potassium oxide hydrochloride for every hyperuricemia model blank group at 2 hours before blood sampling, and IP potassium oxide hydrochloride for test model group at 1 hour before the last using. At 2 hours after the last using, sample blood from the venous plexus behind the animal orbit to test the serum uric acid level.

[3] = 36 cases per group, PHD versus finasteride tablet
[4] = of healed cases (14 NHD, 6 Omeprazole), time unit not given
[5] = treat group 50 cases NHD, control group 30 cases Omeprazole 20 mg oral
[6] = 12 weeks, DHD versus Gliquidone

## CC(C)(C)NC(=O)[C@H]1CC[C@H]2[C@@H]3CC[C@H]4NC(=O)C=C[C@]4(C)[C@H]3CC[C@]12C [finasteride tablet, finasteride]
[1]; [3]
  Effective (cases): 6
  Invalid (cases): 16
  Marked (cases): 10
  Total efficient rate: 52.78%
  total effective cases: 26 cases
[1]; 36 cases per group, treatment PHD hung four hours daily, control finasteride tablet oral once daily
  Healing (cases): 4
[1]; in words, control P>0.05, treatment P<0.001
  Integral values of local symptoms before and after administration: significant differences

## COc1ccc2[nH]c([S+]([O-])Cc3ncc(C)c(OC)c3C)nc2c1 (centres unmarked) [Omeprazole]
[2]; [4]
  needed time for curing diseases: cases healed at course of treatment 6: 0
  needed time for curing diseases: cases healed at course of treatment 7: 0
  needed time for curing diseases: cases healed at course of treatment 8: 2
  needed time for curing diseases: cases healed at course of treatment 9: 4
[2]; treat group 50 cases NHD hung 5 hours/day, control group 30 cases Omeprazole 20 mg oral once daily
  Healing (cases): 6
[2]; [5]
  Invalid effect (cases): 5
  Marked effect (cases): 6
  Total efficient rate (%): 83.3%
  Turning better (cases): 13

## COc1ccc2c(c1)C(=O)N(CCc1ccc(S(=O)(=O)NC(=O)NC3CCCCC3)cc1)C(=O)C2(C)C [Gliquidone]
Patients with diabetes; [6]
  Blood glucose at 2 hours after the meal: Effective (cases): 6
  Blood glucose at 2 hours after the meal: Invalid (cases): 0
  Blood glucose at 2 hours after the meal: Marked (cases): 4
  Blood glucose at 2 hours after the meal: Total efficient rate: 100.0
  Fasting blood glucose (FBG): Effective (cases): 6
  Fasting blood glucose (FBG): Invalid (cases): 1
  Fasting blood glucose (FBG): Total efficient rate: 90.0
Patients with diabetes; 12 weeks, treatment group DHD four hours/day, control group Gliquidone 30 mg increased to 90 mg
  Fasting blood glucose (FBG): Marked (cases): 3
Patients with diabetes; After treating 2 weeks
  Blood glucose at 2 hours after the meal: 17.48
  Fasting blood glucose (FBG): 9.99
Patients with diabetes; After treating 4 weeks
  Blood glucose at 2 hours after the meal: 12.77
  Fasting blood glucose (FBG): 9.27
Patients with diabetes; After treating 8 weeks
  Blood glucose at 2 hours after the meal: 10.07
  Fasting blood glucose (FBG): 8.43
Patients with diabetes; After treating (12 weeks)
  BUN: 9.2 ± 0.6 mmol/L
  Blood glucose at 2 hours after the meal: 9.21
  Fasting blood glucose (FBG): 7.62
  Scr: 250.9 ± 49.3 µmol/L
  Urine protein: 6.0 ± 2.7
Patients with diabetes; Before treating
  BUN: 9.5 ± 0.7 mmol/L
  Blood glucose at 2 hours after the meal: 14.79
  Fasting blood glucose (FBG): 10.72
  Scr: 251.3 ± 54.6 µmol/L
  Urine protein: 6.2 ± 2.5

## COc1ccc2c3c1O[C@H]1[C@@H](O)C=C[C@H]4[C@@H](C2)N(C)CC[C@@]341 [Codeine phosphate]
Kunming mice; Mus musculus, po, read-out: Cough inhibition Rate (%)
  inhibition at 4 mg/kg: 67.3%
Kunming mice; number of coughing within 3 minutes
  Cough Frequency: 11.2 ± 4.8

## Oc1ncnc2[nH]ncc12 [Allopurinol]
Hyperuricemia mice; hyperuricemia mice, 2 hours after the last using, 4 days, Allopurinol dosage 10
  Serum uric acid level of mice (mg/100 ml): 7.46 ± 0.17 mg/100 ml
Hyperuricemia mice; normal mice, in words
  effect on serum uric acid level of normal mice: can reduce the serum uric acid level of normal mice
